# In patent publication US11980596B2 (priority 2017, dated 2024):
# Tests used:
# [1] = Screening in vitro micronucleus test; conditions: in the presence of metabolic activation
# CYP2B6, CYP3A4, CYP1A2 = assay: CYP induction in human hepatocytes
# [2] = test system: patients with treatment-resistant depression (TRD); assay: Adverse events (Example 7); format: in vivo, human; conditions: double-blind
# Experimental: Adverse events were monitored throughout the study. Other safety assessments (i.e., laboratory tests, vital signs, physical examination) were performed at pre-specified time points. Vital signs, the Clinician Administered Dissociative States Scale (CADSS; Bremner, “Measurement of dissociative states with the clinician-administered dissociative states scale (CADSS)”, J. Traumatic Stress, 1998, 11(1):125-136), and the 4-item positive symptom subscale from the Brief Psychiatric Rating Scale (BPRS; Overall, “The Brief Psychiatric Rating Scale. Psychological Reports”, 1962, 10:799-812) were assessed pre-dose, at 40 minutes, and 2 hours post-dose.
# Safety data were analyzed in Period 1, Period 2, double-blind, and open-label data sets, for all subjects receiving at least 1 dose of study medication.
smiles,measurement,setting,value
"CN[C@]1(c2ccccc2Cl)CCCCC1=O [esketamine, (S)-2-(2-chlorophenyl)-2-(methylamino)cyclohexanone]",Genotoxicity,[1],Genotoxic effects
same,Induction of CYP1A2,"CYP2B6, CYP3A4, CYP1A2; hepatocytes",do not induce
same,Induction of CYP2B6 and CYP3A4,"CYP2B6, CYP3A4, CYP1A2; human hepatocytes",modest induction effects
same,S-Ketamine QC sample long-term storage stability,at −20° C.,707 days at −20 °C
same,S-Ketamine QC sample freeze/thaw stability,freeze (−20° C.)/thaw (room temperature),3 freeze (−20° C.)/thaw (room temperature) cycles
same,S-Ketamine QC sample bench-top stability,room temperature,18 hours at room temperature
same,"Dissociation, number of participants","[2]; esketamine 28 mg, N = 19",0
same,"Dissociative disorder, % of participants","[2]; esketamine 28 mg, N = 19",(11) %
same,"Dissociative disorder, number of participants","[2]; esketamine 28 mg, N = 19",2
same,"Dizziness, % of participants","[2]; esketamine 28 mg, N = 19",(21) %
same,"Dizziness, number of participants","[2]; esketamine 28 mg, N = 19",4
same,"Dysgeusia, % of participants","[2]; esketamine 28 mg, N = 19",(11) %
same,"Dysgeusia, number of participants","[2]; esketamine 28 mg, N = 19",2
same,"Feeling abnormal, % of participants","[2]; esketamine 28 mg, N = 19",(11) %
same,"Feeling abnormal, number of participants","[2]; esketamine 28 mg, N = 19",2
same,"Headache, % of participants","[2]; esketamine 28 mg, N = 19",(32) %
same,"Headache, number of participants","[2]; esketamine 28 mg, N = 19",6
same,"Hypersomnia, % of participants","[2]; esketamine 28 mg, N = 19",(11) %
same,"Hypersomnia, number of participants","[2]; esketamine 28 mg, N = 19",2
same,"Hypertension, number of participants","[2]; esketamine 28 mg, N = 19",0
same,"Hypoesthesia oral, % of participants","[2]; esketamine 28 mg, N = 19",(5) %
same,"Hypoesthesia oral, number of participants","[2]; esketamine 28 mg, N = 19",1
same,"Insomnia, number of participants","[2]; esketamine 28 mg, N = 19",0
same,"Nasal discomfort, number of participants","[2]; esketamine 28 mg, N = 19",0
same,"Nausea, % of participants","[2]; esketamine 28 mg, N = 19",(11) %
same,"Nausea, number of participants","[2]; esketamine 28 mg, N = 19",2
same,"Oropharyngeal pain, number of participants","[2]; esketamine 28 mg, N = 19",0
same,"Polyuria, number of participants","[2]; esketamine 28 mg, N = 19",0
same,"Sedation, % of participants","[2]; esketamine 28 mg, N = 19",(5) %
same,"Sedation, number of participants","[2]; esketamine 28 mg, N = 19",1
same,"Throat irritation, % of participants","[2]; esketamine 28 mg, N = 19",(5) %
same,"Throat irritation, number of participants","[2]; esketamine 28 mg, N = 19",1
same,"Total with events, % of participants","[2]; esketamine 28 mg, N = 19",(58) %
same,"Total with events, number of participants","[2]; esketamine 28 mg, N = 19",11
same,"Tunnel vision, number of participants","[2]; esketamine 28 mg, N = 19",0
same,"Vertigo, % of participants","[2]; esketamine 28 mg, N = 19",(11) %
same,"Vertigo, number of participants","[2]; esketamine 28 mg, N = 19",2
same,"Vision blurred, number of participants","[2]; esketamine 28 mg, N = 19",0
same,"Dissociation, % of participants","[2]; esketamine 56 mg, N = 20",(35) %
same,"Dissociation, number of participants","[2]; esketamine 56 mg, N = 20",7
same,"Dissociative disorder, % of participants","[2]; esketamine 56 mg, N = 20",(5) %
same,"Dissociative disorder, number of participants","[2]; esketamine 56 mg, N = 20",1
same,"Dizziness, % of participants","[2]; esketamine 56 mg, N = 20",(40) %
same,"Dizziness, number of participants","[2]; esketamine 56 mg, N = 20",8
same,"Dysgeusia, % of participants","[2]; esketamine 56 mg, N = 20",(15) %
same,"Dysgeusia, number of participants","[2]; esketamine 56 mg, N = 20",3
same,"Feeling abnormal, % of participants","[2]; esketamine 56 mg, N = 20",(5) %
same,"Feeling abnormal, number of participants","[2]; esketamine 56 mg, N = 20",1
same,"Headache, % of participants","[2]; esketamine 56 mg, N = 20",(15) %
same,"Headache, number of participants","[2]; esketamine 56 mg, N = 20",3
same,"Hypersomnia, number of participants","[2]; esketamine 56 mg, N = 20",0
same,"Hypertension, % of participants","[2]; esketamine 56 mg, N = 20",(10) %
same,"Hypertension, number of participants","[2]; esketamine 56 mg, N = 20",2
same,"Hypoesthesia oral, % of participants","[2]; esketamine 56 mg, N = 20",(20) %
same,"Hypoesthesia oral, number of participants","[2]; esketamine 56 mg, N = 20",4
same,"Insomnia, % of participants","[2]; esketamine 56 mg, N = 20",(10) %
same,"Insomnia, number of participants","[2]; esketamine 56 mg, N = 20",2
same,"Nasal discomfort, % of participants","[2]; esketamine 56 mg, N = 20",(10) %
same,"Nasal discomfort, number of participants","[2]; esketamine 56 mg, N = 20",2
same,"Nausea, % of participants","[2]; esketamine 56 mg, N = 20",(20) %
same,"Nausea, number of participants","[2]; esketamine 56 mg, N = 20",4
same,"Oropharyngeal pain, % of participants","[2]; esketamine 56 mg, N = 20",(5) %
same,"Oropharyngeal pain, number of participants","[2]; esketamine 56 mg, N = 20",1
same,"Polyuria, % of participants","[2]; esketamine 56 mg, N = 20",(10) %
same,"Polyuria, number of participants","[2]; esketamine 56 mg, N = 20",2
same,"Sedation, % of participants","[2]; esketamine 56 mg, N = 20",(10) %
same,"Sedation, number of participants","[2]; esketamine 56 mg, N = 20",2
same,"Throat irritation, number of participants","[2]; esketamine 56 mg, N = 20",0
same,"Total with events, % of participants","[2]; esketamine 56 mg, N = 20",(80) %
same,"Total with events, number of participants","[2]; esketamine 56 mg, N = 20",16
same,"Tunnel vision, number of participants","[2]; esketamine 56 mg, N = 20",0
same,"Vertigo, % of participants","[2]; esketamine 56 mg, N = 20",(5) %
same,"Vertigo, number of participants","[2]; esketamine 56 mg, N = 20",1
same,"Vision blurred, number of participants","[2]; esketamine 56 mg, N = 20",0
same,"Dissociation, % of participants","[2]; esketamine 84 mg, N = 17",(24) %
same,"Dissociation, number of participants","[2]; esketamine 84 mg, N = 17",4
same,"Dissociative disorder, % of participants","[2]; esketamine 84 mg, N = 17",(24) %
same,"Dissociative disorder, number of participants","[2]; esketamine 84 mg, N = 17",4
